Source: US11053204B2, “Pyrimidinyloxy benzene derivatives as herbicides” (FMC Corporation, priority 2015, dated 2021)

Columns and labels:
Assay type in all cases: in vivo
[1] = system: oat, wild (wild oat Avena fatua); assay: Test C preemergence, plant response rating
[2] = system: wild poinsettia (Euphorbia heterophylla); assay: Test C preemergence, plant response rating
[3] = system: sedge, umbrella (small-flower umbrella sedge, Cyperus difformis); assay: Test B flooded paddy test, plant response rating; settings: Cyperus difformis, 312 h; 250 g ai/ha; Flood; scale of 0 to 100 where 0 is no effect and 100 is complete control; 13 to 15 days
Method in brief: (§1)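 Visual injury ratings against untreated controls, taken 13 to 15 days after compound was added to paddy water standing 3 cm above the soil.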

rice (Oryza sativa) = assay: Test B flooded paddy test, plant response rating; settings: Oryza sativa, 312 h; 250 g ai/ha; Flood; scale of 0 to 100 where 0 is no effect and 100 is complete control; 13 to 15 days
Method in brief: as §1

[4] = system: barnyardgrass (Echinochloa crus-galli); assay: Test B flooded paddy test, plant response rating; settings: Echinochloa crus-galli, 312 h; 250 g ai/ha; Flood; scale of 0 to 100 where 0 is no effect and 100 is complete control; 13 to 15 days
Method in brief: as §1

[5] = system: foxtail, giant (giant foxtail, Setaria faberii); assay: Test C preemergence, plant response rating; settings: Setaria faberi, pre-emergence, Preemergence
Method in brief: (§2)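 Pre-emergence: seeds sown in loam soil–sand blend or silt loam and sprayed with test chemicals in a non-phytotoxic solvent mixture with surfactant. Post-emergence: plants 2 to 18 cm (1- to 4-leaf stage) in peat-based potting medium, same formulation. Greenhouse 13 to 15 d; visual rating 0 (no effect) to 100 (complete control) versus controls.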

[6] = system: wheat (winter wheat, Triticum aestivum); assay: Test C preemergence, plant response rating; settings: Triticum aestivum, pre-emergence, Preemergence
Method in brief: as §2

[7] = system: nutsedge, yellow (yellow nutsedge, Cyperus esculentus); assay: Test C preemergence, plant response rating; settings: Cyperus, pre-emergence, Preemergence
Method in brief: as §2

soybean (Glycine max) = assay: Test C preemergence, plant response rating; settings: Glycine max, pre-emergence, Preemergence
Method in brief: as §2

corn (Zea mays) = assay: Test C preemergence, plant response rating; settings: Zea mays, pre-emergence, Preemergence
Method in brief: as §2

[8] = system: velvetleaf (Abutilon theophrasti); assay: Test C preemergence, plant response rating; settings: Abutilon theophrasti, pre-emergence, Preemergence
Method in brief: as §2

[9] = system: ragweed (common ragweed, Ambrosia elatior); assay: Test C preemergence, plant response rating; settings: Ambrosia artemisiifolia, pre-emergence, Preemergence
Method in brief: as §2

[10] = system: lambsquarters (Chenopodium album); assay: Test C preemergence, plant response rating; settings: Chenopodium album, pre-emergence, Preemergence
Method in brief: as §2

[11] = system: oilseed rape (Brassica napus); assay: Test C preemergence, plant response rating; settings: Brassica napus, pre-emergence, Preemergence
Method in brief: as §2

[12] = system: blackgrass (Alopecurus myosuroides); assay: Test C preemergence, plant response rating; settings: Alopecurus myosuroides, pre-emergence, Preemergence
Method in brief: as §2

[13] = system: ryegrass, Italian (Italian ryegrass, Lolium multiflorum); assay: Test C preemergence, plant response rating; settings: Lolium multiflorum, pre-emergence, Preemergence
Method in brief: as §2

[14] = system: crabgrass, large (large crabgrass, Digitaria sanguinalis); assay: Test C preemergence, plant response rating; settings: Digitaria sanguinalis, pre-emergence, Preemergence
Method in brief: as §2

[15] = system: waterhemp (common waterhemp, Amaranthus rudis); assay: Test C preemergence, plant response rating; settings: Amaranthus tuberculatus, pre-emergence, Preemergence
Method in brief: as §2

[16] = system: morningglory (Ipomoea coccinea); assay: Test C preemergence, plant response rating; settings: Ipomoea, pre-emergence, Preemergence
Method in brief: as §2

[17] = system: surinam grass (Brachiaria decumbens); assay: Test C preemergence, plant response rating

O=C(CCC(F)(F)F)c1c(Cl)cccc1Oc1ncc(Cl)cn1 [Compound 107, 1-[2-chloro-6-[(5-chloro-2-pyrimidinyl)oxy]phenyl]-4,4,4-trifluoro-1-butanone]
Plant response rating, Oat, Wild ([1]; 31 g ai/ha, scale 0 to 100): 5 | Plant response rating, Oat, Wild ([1]; 62 g ai/ha, scale 0 to 100): 30 | Plant response rating, Oat, Wild ([1]; 125 g ai/ha, scale of 0 to 100): 65 | Plant response rating, Poinsettia, Wild ([2]; 31 g ai/ha, scale 0 to 100): 10 | Plant response rating, Poinsettia, Wild ([2]; 62 g ai/ha, scale 0 to 100): 40 | Plant response rating, Poinsettia, Wild ([2]; 125 g ai/ha, scale of 0 to 100): 70 | pest or weed control at 250 g/ha [3]: 95% | plant injury at 250 g/ha (rice (Oryza sativa)): 35% | pest or weed control at 250 g/ha [4]: 50% | pest or weed control at 125 g/ha ([5]; 125 g ai/ha, scale of 0 to 100): 98% | pest or weed control at 31 g/ha ([5]; 31 g ai/ha, scale 0 to 100): 98% | pest or weed control at 62 g/ha ([5]; 62 g ai/ha, scale 0 to 100): 98% | plant injury at 125 g/ha ([6]; 125 g ai/ha, scale of 0 to 100): 35% | plant injury at 31 g/ha ([6]; 31 g ai/ha, scale 0 to 100): 10% | plant injury at 62 g/ha ([6]; 62 g ai/ha, scale 0 to 100): 15% | pest or weed control at 125 g/ha ([7]; 125 g ai/ha, scale of 0 to 100): 0% | pest or weed control at 31 g/ha ([7]; 31 g ai/ha, scale 0 to 100): 0% | pest or weed control at 62 g/ha ([7]; 62 g ai/ha, scale 0 to 100): 0% | plant injury at 125 g/ha (soybean (Glycine max); 125 g ai/ha, scale of 0 to 100): 45% | plant injury at 31 g/ha (soybean (Glycine max); 31 g ai/ha, scale 0 to 100): 20% | plant injury at 62 g/ha (soybean (Glycine max); 62 g ai/ha, scale 0 to 100): 35% | Corn plant response rating (crop injury, 0 = no effect, 100 = complete kill) at 125 g/ha (corn (Zea mays); 125 g ai/ha, scale of 0 to 100): 45% | Corn plant response rating (crop injury, 0 = no effect, 100 = complete kill) at 16 g/ha (corn (Zea mays); 16 g ai/ha, scale 0 to 100): 0% | Corn plant response rating (crop injury, 0 = no effect, 100 = complete kill) at 31 g/ha (corn (Zea mays); 31 g ai/ha, scale 0 to 100): 0% | Corn plant response rating (crop injury, 0 = no effect, 100 = complete kill) at 62 g/ha (corn (Zea mays); 62 g ai/ha, scale 0 to 100): 15% | pest or weed control at 125 g/ha ([8]; 125 g ai/ha, scale of 0 to 100): 98% | pest or weed control at 31 g/ha ([8]; 31 g ai/ha, scale 0 to 100): 75% | pest or weed control at 62 g/ha ([8]; 62 g ai/ha, scale 0 to 100): 98% | pest or weed control at 125 g/ha ([9]; 125 g ai/ha, scale of 0 to 100): 50% | pest or weed control at 31 g/ha ([9]; 31 g ai/ha, scale 0 to 100): 30% | pest or weed control at 62 g/ha ([9]; 62 g ai/ha, scale 0 to 100): 50% | pest or weed control at 125 g/ha ([10]; 125 g ai/ha, scale of 0 to 100): 95% | pest or weed control at 31 g/ha ([10]; 31 g ai/ha, scale 0 to 100): 75% | pest or weed control at 62 g/ha ([10]; 62 g ai/ha, scale 0 to 100): 85% | plant injury at 125 g/ha ([11]; 125 g ai/ha, scale of 0 to 100): 98% | plant injury at 31 g/ha ([11]; 31 g ai/ha, scale 0 to 100): 40% | plant injury at 62 g/ha ([11]; 62 g ai/ha, scale 0 to 100): 85% | pest or weed control at 125 g/ha ([12]; 125 g ai/ha, scale of 0 to 100): 90% | pest or weed control at 16 g/ha ([12]; 16 g ai/ha, scale 0 to 100): 60% | pest or weed control at 31 g/ha ([12]; 31 g ai/ha, scale 0 to 100): 90% | pest or weed control at 62 g/ha ([12]; 62 g ai/ha, scale 0 to 100): 90% | pest or weed control at 125 g/ha ([13]; 125 g ai/ha, scale of 0 to 100): 90% | pest or weed control at 31 g/ha ([13]; 31 g ai/ha, scale 0 to 100): 35% | pest or weed control at 62 g/ha ([13]; 62 g ai/ha, scale 0 to 100): 70% | pest or weed control at 125 g/ha ([14]; 125 g ai/ha, scale of 0 to 100): 100% | pest or weed control at 16 g/ha ([14]; 16 g ai/ha, scale 0 to 100): 98% | pest or weed control at 31 g/ha ([14]; 31 g ai/ha, scale 0 to 100): 98% | pest or weed control at 62 g/ha ([14]; 62 g ai/ha, scale 0 to 100): 100% | pest or weed control at 125 g/ha ([15]; 125 g ai/ha, scale of 0 to 100): 100% | pest or weed control at 31 g/ha ([15]; 31 g ai/ha, scale 0 to 100): 98% | pest or weed control at 62 g/ha ([15]; 62 g ai/ha, scale 0 to 100): 100% | pest or weed control at 125 g/ha ([16]; 125 g ai/ha, scale of 0 to 100): 85% | pest or weed control at 31 g/ha ([16]; 31 g ai/ha, scale 0 to 100): 0% | pest or weed control at 62 g/ha ([16]; 62 g ai/ha, scale 0 to 100): 40% | Plant response rating, Surinam Grass ([17]; 31 g ai/ha, scale 0 to 100): 60 | Plant response rating, Surinam Grass ([17]; 62 g ai/ha, scale 0 to 100): 98 | Plant response rating, Surinam Grass ([17]; 125 g ai/ha, scale of 0 to 100): 98
